From PubChem BioAssay (NCI)
“And” between values parts separate entries of the source, which are not always exact repeats. Identical values can stand only once.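 Grown in 96-well plates, cells were treated for 48 hours with each compound at five concentrations. Insufficient inhibition: endpoint recorded as highest concentration tested. At the GI50, growth is halved. The concentration for full growth arrest is given as TGI.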

Key:
Assay in all cases: NCI tumour cell line growth inhibition, 48 h
CAKI-1 renal = system: CAKI-1 renal
HCC-2998 colon = system: HCC-2998 colon
HL-60(TB) leukemia = system: HL-60(TB) leukemia
MDA-MB-231 breast = system: MDA-MB-231 breast
NCI-H226 lung = system: NCI-H226 lung
OVCAR-5 ovarian = system: OVCAR-5 ovarian
OVCAR-8 ovarian = system: OVCAR-8 ovarian
RPMI-8226 leukemia = system: RPMI-8226 leukemia
SF-295 CNS = system: SF-295 CNS
SR leukemia = system: SR leukemia

| SMILES | GI50 (CAKI-1 renal) [nM] | TGI (CAKI-1 renal) [nM] | GI50 (HCC-2998 colon) [nM] | TGI (HCC-2998 colon) [nM] | GI50 (HL-60(TB) leukemia) [nM] | TGI (HL-60(TB) leukemia) [nM] | GI50 (MDA-MB-231 breast) [nM] | TGI (MDA-MB-231 breast) [nM] | GI50 (NCI-H226 lung) [nM] | TGI (NCI-H226 lung) | GI50 (OVCAR-5 ovarian) [nM] | TGI (OVCAR-5 ovarian) [nM] | GI50 (OVCAR-8 ovarian) [nM] | TGI (OVCAR-8 ovarian) [nM] | GI50 (RPMI-8226 leukemia) | TGI (RPMI-8226 leukemia) [nM] | GI50 (SF-295 CNS) [nM] | TGI (SF-295 CNS) [nM] | GI50 (SR leukemia) [nM] | TGI (SR leukemia) [nM] |
| --- | --- | --- | --- | --- | --- | --- | --- | --- | --- | --- | --- | --- | --- | --- | --- | --- | --- | --- | --- | --- |
| COc1ccc(C/C(C)=C(/c2ccc(OCCN3CCCCC3)cc2)c2ccc(OC(=O)NCc3ccccc3)cc2)cc1 | 405 | 769 | 435 | 797 | 391 | 895 | 440 | 810 | 441 | 868 nM | 415 | 780 | 472 | 937 | 399 nM | 963 | 436 | 802 | 353 | 1340 |
| C#CC#CC#CC#CC#CC#CC#CC#CCC1OCC(COC(=O)O[C@@H](C(=O)O[C@H]2C[C@@]3(O)[C@@H](OC(=O)c4ccccc4)[C@@H]4[C@]5(OC(C)=O)CO[C@@H]5C[C@H](O)[C@@]4(C)C(=O)[C@H](OC(C)=O)C(=C2C)C3(C)C)[C@@H](NC(=O)c2ccccc2)c2ccccc2)O1 (some centres not stated) | 446 | > 33300 | 287 | > 33300 | 99 |  | 447 | > 33300 | 2220 | > 33300 nM | 250 | > 33300 | 187 | > 33300 | 47.2 nM | > 33300 | 581 | > 11600 | 99.1 | > 33300 |
| Cc1cccc(/C=N/NC(=S)N2CCCC2)n1 | 3240 | 1160 | 102 | 920 | 236 | 872 | 1140 |  | 266 | 7730 nM and 830 nM | 2410 |  | 624 | > 100000 | 426 nM and 322 nM | > 100000 | 1080 | 4240 | 150 | 876 |
| O=C1/C(=C/c2ccccc2)CN(C(=O)CCN2CCOCC2)C/C1=C\c1ccccc1 |  | 23000 |  | 3680 |  | 6510 |  | 9780 |  | 15000 nM |  | 16200 |  | 10300 |  | 3300 |  | 6860 |  | 4040 |
| C[C@@H]1[C@H](C)N1CC(O)Cn1ccnc1[N+](=O)[O-] (some centres not stated) |  | > 100000 |  | > 100000 |  | > 100000 |  | > 100000 |  | > 100000 nM |  | > 100000 |  | > 100000 |  |  |  | > 100000 |  | > 100000 |
| COc1cc(C(=O)c2c(-c3ccccc3)oc3c(OC)cccc23)cc(OC)c1OC | 47.4 | 21900 | 211 | > 100000 | 44.8 | 200 | 203 | 2000 | 236 |  | 158 | > 100000 | 110 | > 100000 | 112 nM | > 100000 | 36.3 | 1960 | 36.3 | > 100000 |
| CC1(C)C2CCC13C(=O)C1OC3(C2)C2C(=O)c3ccccc3C(=O)C12 (configuration not stated) | 21900 | 72800 | > 100000 | > 100000 | > 100000 | > 100000 | 2440 | 7980 | > 100000 | > 100000 nM | > 100000 | > 100000 | > 100000 | > 100000 |  |  |  |  | > 100000 | > 100000 |
| O=C1c2cc3c(cc2[C@@H]2[C@H]1c1ccc([N+](=O)[O-])cc1C(=O)N2CCCBr)OCO3 | < 10 | < 33.5 | < 12.5 | 117 | < 10 | > 100000 | 187 | 699 | < 10 | < 10 nM | < 15.8 |  | < 10 | 271 |  |  | < 10 |  | < 10 | < 10 |
| NC(=O)N/N=C1/CCC(O)CC1CC(=O)O (configuration not stated) |  | > 100000 |  |  |  | 31900 |  | > 100000 |  | > 100000 nM |  | > 100000 |  | > 100000 |  | > 100000 |  | > 100000 |  | > 100000 |
| CSC1=C(N)C(=O)c2[nH]cc(CO)c2C1=N |  |  | 173 | 338 | 222 | 514 | 236 | 669 | 206 | 450 nM | 176 | 326 | 275 | 948 | 293 nM | 1200 | 159 | 309 | 221 | 659 |
| CCCCOC(=O)N1CCN(/[N+]([O-])=N/Oc2ccc([N+](=O)[O-])cc2[N+](=O)[O-])CC1 | 3160 | 6770 |  |  | 6850 | > 100000 | 2310 | 5630 | 2540 | 5950 nM | 3530 | 11800 | 25500 | > 100000 | 2300 nM | 5470 | 28600 | > 100000 | > 100000 | > 100000 |
